Assay results taken from ChEMBL document CHEMBL4000220, “Optimization of spirocyclic proline tryptophan hydroxylase-1 inhibitors” (Bioorg Med Chem Lett, 2017).

Tests used:
[1] = Prodrug activation in rat hepatocytes assessed as ester hydrolysis by measuring 8-(2-amino-6-((R)-1-(4-chloro-2-(3-methyl-1H-pyrazol-1-yl)phenyl)-2,2,2-trifluoroethoxy)pyrimidin-4-yl)-2,8-diazaspiro[4.5]decane-3-carboxylic acid level by LC/UV/MS method; type: cell-based, Hepatocyte
[2] = Drug metabolism in rat hepatocytes assessed as hydroxylation by measuring 8-(2-amino-6-((R)-1-(4-chloro-2-(3-(hydroxymethyl)-1H-pyrazol-1-yl)phenyl)-2,2,2-trifluoroethoxy)pyrimidin-4-yl)-2,8-diazaspiro[4.5]decane-3-carboxylic acid level by LC/UV/MS method; type: ADME, cell-based, Hepatocyte
[3] = Drug metabolism in rat hepatocytes assessed as 8-(2-amino-6-((R)-1-(2-(3-carboxy-1H-pyrazol-1-yl)-4-chlorophenyl)-2,2,2-trifluoroethoxy)pyrimidin-4-yl)-2,8-diazaspiro[4.5]decane-3-carboxylic acid formation by LC/UV/MS method; type: ADME, cell-based, Hepatocyte
[4] = Drug metabolism in rat hepatocytes assessed as 8-(2-amino-6-((R)-1-(4-chloro-2-(3-(sulfooxymethyl)-1H-pyrazol-1-yl)phenyl)-2,2,2-trifluoroethoxy)pyrimidin-4-yl)-2,8-diazaspiro[4.5]decane-3-carboxylic acid formation by LC/UV/MS method; type: ADME, cell-based, Hepatocyte

Measured: Drug metabolism

CCOC(=O)C1CC2(CCN(c3cc(O[C@H](c4ccc(Cl)cc4-n4ccc(C)n4)C(F)(F)F)nc(N)n3)CC2)CN1 (some centres undefined)
Metabolite_Detected: [1] | [2] | [3] | [4]
